Read-outs that look alike come from different tables or passages of the source. Marks after values point to notes of the source that are not given here.
Columns and labels:
Platelet Aggregation = test: Ristocetin platelet aggregation test; format: cell-based
[1] = test system: Foreign-Body Granuloma Formation in Rats; test: Foreign-body granuloma formation in rats, low dose aspirin (9 mg/kg) alone or with phospholipid/neutral lipids; format: in vivo; settings: aspirin 9 mg/kg intragastric twice a day, 5 doses, starting five days after implantation; (n); spread in next table row
Description: Sterile tared string was surgically implanted. Five days later rats were intragastrically administered twice a day with either saline, ASA alone, or ASA lipid mixtures.

[2] = format: physicochemical; settings: NSAID sodium salt 100mM, 25°C, neutral conditions, alone or sonicated with 0.5 mM DPPC or DPPG; the sodium-salicylate line is with DPPC; FIG. 3
Description: The diffusion of aspirin (alone and complexed with phospholipid) from water into cyclohexane was used as a model to estimate the membrane permeability of the drug.
The sodium salt of ASA (also salicylate) was dissolved in 5 ml of water at a final concentration of 100mM (pH adjusted to 6.0) and gently stirred at 25°C. An equal volume of cyclohexane was layered over the aqueous solution and the entry of the NSAID into the organic phase was monitored fluorometrically over time. In order to determine the effect of phospholipid association on the lipid permeability of the NSAID, ASA (or salicylate) at the above concentration was sonicated in the presence of 0.5 mM phospholipid (DPPC or DPPG) in water (adjusted to a pH of 7), and its rate of diffusion into the cyclohexane phase was measured fluorometrically. […] This entire process could be completed in < 30 seconds.

rats [3] = test: Rat fever model (Brewer's yeast), antipyretic activity by rectal temperature; format: in vivo; settings: for enhancement in anti-pyretic activity of the NSAID/DPPC complex compared to the NSAID alone: sodium salts complexed with equimolar DPPC, first three hours after intragastric administration
Description: Similar antipyretic analyses were performed with the sodium salts of the following NSAIDs: diclofenac (10 mg/kg), indomethacin (10 mg/kg) and naproxen (30 mg/kg), alone and complexed with an equimolar concentration of DPPC. All test solutions were titrated to a pH of 4.5 prior to intragastric administration. Rectal temperatures were monitored in conscious, restrained rats at all indicated times.
The ability of NSAIDs (administered alone and complexed with DPPC) to reduce fever in rats was determined.

rats [4] = test: Acute gastric lesions in rats after salicylate-based NSAID and 0.6 N HCl challenge; format: in vivo, male Sprague Dawley rats; settings: intragastrically administered in association with DPPC versus without; rats challenged with 0.6N HCl; FIG. 4A
Description: Ten minutes later, the rats were intragastrically challenged with 1 ml of 0.6 N HCI.
One of a number of NSAIDs was intragastrically administered to rats alone or preassociated with an equimolar concentration of DPPC or Phospholipon 90 G (purified soya lecithin, prepared by Nattermann GmbH of Cologne Germany) in several models of acute and chronic injury of the upper GI tract. Two contrasting animal models were employed to determine the ability of DPPC to protect against acute NSAID injury to the GI tract. For salicylate-based NSAIDs, which primarily induce stomach injury, gastric lesions were scored in fasted rats who were initially treated with aspirin or salicylate alone or complexed with DPPC and challenged 10 minutes later with a supra-physiological dose of HCl. For non-salicylate NSAIDs (indomethacin, diclofenac and naproxen) which predominantly induce injury to the mid-distal regions of the small intestine, the quantity of intraluminal blood was assessed in the distal half of the small intestine of rats who were pre- and post-treated with the Nitric Oxide synthetase inhibitor, L-NAME (N-nitro-L-arginine methyl ester).

rats [5] = format: in vivo; settings: aspirin 90mg/kg daily intragastric over 2 weeks, (n) rats/group
Description: Rats were treated with ASA over a two week period to investigate the chronic effects of NSAID exposure (in the presence and absence of phospholipids) on hematocrit, gastric mucosal hydrophobicity, and granuloma formation. […] The test solutions (saline, ASA and ASA/Phospholipon 90G complex) were intragastrically administered between 8AM - 9AM daily during the two week study period. In these chronic exposure experiments, ASA was complexed with an equimolar concentration of Phospholipon 90G (purified soya lecithin, prepared and obtained from Nattermann GmbH of Cologne, Germany) instead of DPPC. At the completion of the study period, blood was collected into a capillary tube for the determination of hematocrit and the stomach was excised for contact angle analysis.
Contact angle analysis was performed with the use of a goniometer on excised gastric mucosal tissue, that was lightly blotted and dried, as previously outlined (Hills et al., 1983; Goddard et al., 1987; Goddard et al., 1990). Briefly, this was accomplished by applying a droplet of water (~ 5µl) to the tissue surface, and employing the telescopic eyepiece of the goniometer to measure the maximal angle that is dissected at the triple point, where the solid/liquid/ and air interface meet.

[6] = test system: Foreign-Body Granuloma Formation; test: Rat foreign-body granuloma formation (implanted cotton string), two-week daily treatment; format: in vivo, rats; settings: two weeks, (dry weight of string with adherent granuloma tissue - dry weight of string)/dry weight of string
Description: Sterile tared cotton string was surgically implanted (bilaterally) under the abdominal skin of ether anesthetized rats on day 1 of the study period, and then randomly placing rats in a group to be daily treated with saline, aspirin or the NSAID complexed with Phospholipon 90G over a two-week period.
At the completion of the study period the string with the adherent granuloma tissue was surgically dissected from the euthanized rats and dried in a vacuum for several days at room temperature, until a baseline dry weight was obtained. The difference between this value and the initial dry weight of the string prior to implantation divided by the latter value provided an estimate of the weight of granuloma tissue.

Structure (SMILES): CC(=O)Oc1ccccc1C(=O)O [ASA, acetyl-salicylic acid]
- activity at 10 µM (Platelet Aggregation; read-out: % Platelet Aggregation, High Ristocetin (1.5 mg/ml) Test, ASA 0.01mM, DPPC equimolar where added): 100%
- activity at 100 µM (Platelet Aggregation; read-out: % Platelet Aggregation, High Ristocetin (1.5 mg/ml) Test, ASA 0.1 mM, DPPC equimolar where added): 83%
- activity at 1000 µM (Platelet Aggregation; read-out: % Platelet Aggregation, High Ristocetin (1.5 mg/ml) Test, ASA 1.0 mM, DPPC equimolar where added): 95%
- activity at 1000 µM (Platelet Aggregation; read-out: % Platelet Aggregation, High Ristocetin (1.5 mg/ml) Test, ASA 1.0 mM, second study, DPPC equimolar where added): 100%
- activity at 10 µM (Platelet Aggregation; read-out: % Platelet Aggregation, Low Ristocetin (0.75) mg/ml Test, ASA 0.01mM, DPPC equimolar where added): 65%
- activity at 100 µM (Platelet Aggregation; read-out: % Platelet Aggregation, Low Ristocetin (0.75) mg/ml Test, ASA 0.1mM, DPPC equimolar where added): 26%
- activity at 1000 µM (Platelet Aggregation; read-out: % Platelet Aggregation, Low Ristocetin (0.75) mg/ml Test, ASA 1.0mM, second study, DPPC equimolar where added): 39%
- activity at 1000 µM (Platelet Aggregation; read-out: % Platelet Aggregation, Low Ristocetin (0.75) mg/ml Test, ASA 1.0mm, DPPC equimolar where added): 80%
- Foreign-Body Granuloma Formation [1]: 3.89(8)
- passive diffusion (flux) from water into cyclohexane [2]: negligible
- antipyretic activity (rats [3]; ASA 4.5 mg/kg (subthreshold), alone or complexed with equimolar DPPC, FIG. 9): no antipyretic activity alone
- antipyretic activity (rats [3]; ASA 9.0 mg/kg (subthreshold), intragastric, alone or with equimolar phospholipid, FIG. 6 (five hour period) and FIG. 8): does not have significant antipyretic activity
- antipyretic activity after antisecretory pre-treatment (rats [3]; aspirin 20 mg/kg (FIG. 22: 18 mg/kg) in conjunction with proton pump inhibitor omeprazole (Prilosec), IP 150 mg/kg two hours before): failed to reduce fever
- antipyretic activity after antisecretory pre-treatment (rats [3]; aspirin 20 mg/kg (FIG. 23: 18 mg/kg) in conjunction with Ranitidine (Zantac), IP 2 mg/kg 1 hour before): failed to reduce fever
- antipyretic activity (rats [3]; aspirin alone at doses of < 10 mg/kg, 4 hour study period, FIG. 7): failed to reduce the fever
- injurious potential to induce gastric lesions (rats [4]): remarkably decreased
- Gastric Mucosal Hydrophobicity (degrees, Contact Angle) (rats [5]): 15.8 ± 6.6^c(6) degrees
- Hematocrit (rats [5]): 47.8 ± 0.2^c(10)
- Granuloma Formation ([6]; ASA 90 mg/kg): 1.90 ± 0.10^b
- Granuloma Formation ([6]; ASA 140 mg/kg): 1.07 ± 0.09^b

Structure (SMILES): CCCCCCCCCCCCCCCC(=O)OCC(COP(=O)([O-])OCC[N+](C)(C)C)OC(=O)CCCCCCCCCCCCCCC (stereo not drawn) [DPPC, dipalmitoyl phosphatidylcholine]
- activity at 1000 µM (Platelet Aggregation; High Ristocetin (1.5 mg/ml) Test, ASA 0.00, DPPC alone at 1 mM, read-out: % Platelet Aggregation): 100%
- activity at 1000 µM (Platelet Aggregation; Low Ristocetin (0.75) mg/ml Test, ASA 0.00, DPPC alone at 1 mM, read-out: % Platelet Aggregation): 94%

Structure (SMILES): O=C(O)Cc1ccccc1Nc1c(Cl)cccc1Cl [diclofenac, 2-(2,6-dichlorophenylamino)-phenylacetic acid]
- anti-pyretic activity with DPPC versus NSAID alone (rats [3]; diclofenac 10 mg/kg with DPPC, FIG. 20): ability of DPPC to enhance the anti-pyretic activity
- enhancement in anti-pyretic activity of the NSAID/DPPC complex compared to the NSAID alone (rats [3]): -0.29 °C

Structure (SMILES): COc1ccc2c(c1)c(CC(=O)O)c(C)n2C(=O)c1ccc(Cl)cc1 [indomethacin, acetic acid]
- anti-pyretic activity with DPPC versus NSAID alone (rats [3]; indomethacin 10 mg/kg with DPPC, FIG. 18): ability of DPPC to enhance the anti-pyretic activity of ASA was seen
- enhancement in anti-pyretic activity of the NSAID/DPPC complex compared to the NSAID alone (rats [3]): -0.28 °C

Structure (SMILES): COc1ccc2cc([C@H](C)C(=O)O)ccc2c1 [naproxen, 2-(6-methoxy-2-naphthyl)-propinic acid]
- anti-pyretic activity with DPPC versus NSAID alone (rats [3]; naproxen 25 mg/kg dose with DPPC, FIG. 19): ability of DPPC to enhance the anti-pyretic activity
- enhancement in anti-pyretic activity of the NSAID/DPPC complex compared to the NSAID alone (rats [3]): -0.30 °C

Structure (SMILES): O=C(O)c1ccccc1O [salicylate, salicylic acid]
- anti-pyretic activity with DPPC versus NSAID alone (rats [3]; salicylic acid 70 mg/kg dose with DPPC, FIG. 21): ability of DPPC to enhance the anti-pyretic activity
- injurious potential to induce gastric lesions (rats [4]): remarkably decreased
